# From article PMC8041284, “Tunable Methacrylamides for Covalent Ligand Directed Release Chemistry” (Journal of the American Chemical Society, 2021)
# Where two headings read alike, the source gives them in different places. Where a SMILES comes first, the peptide text is derived from it. [ ]: non-standard residue; d: D form. pGlu = O=C1CC[C@@H](C(=O)O)N1; Thz = O=C(O)[C@@H]1CSCN1
# Biological target: BTK (Homo sapiens, UniProt Q06187)
# Assay: biochemical
# [1] = read-out: BTK inhibition (%), 0.75 uM BTK, […] probe 3l, 15 min preincubation
# Sequence of BTK (Q06187 402-655 limits assumed): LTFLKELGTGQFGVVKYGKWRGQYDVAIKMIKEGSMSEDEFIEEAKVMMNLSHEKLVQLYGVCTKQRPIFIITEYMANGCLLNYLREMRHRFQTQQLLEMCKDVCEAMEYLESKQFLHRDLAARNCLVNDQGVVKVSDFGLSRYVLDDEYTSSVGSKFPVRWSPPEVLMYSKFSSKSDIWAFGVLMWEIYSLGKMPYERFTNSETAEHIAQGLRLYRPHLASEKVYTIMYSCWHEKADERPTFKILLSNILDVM
Structure (SMILES),inhibition at 10 µM [1],inhibition at 10 µM (read-out: BTK inhibition (%))
CC(C)c1nc(N(C)S(C)(=O)=O)nc(-c2ccc(F)cc2)c1/C=C/[C@@H](O)C[C@@H](O)CC(=O)O [PCM-0090418],-4.7%,
CC#CCn1c(N2CCC[C@@H](N)C2)nc2c1c(=O)n(Cc1nc(C)c3ccccc3n1)c(=O)n2C [PCM-0090431],-3.1%,
CN(C)c1ccc2nc3ccc(=[N+](C)C)cc-3sc2c1 [PCM-0090465],42.8%,
O=C1CN2Cc3c(ccc(Cl)c3Cl)N=C2N1 [PCM-0090482],-15.2%,
Nc1nc(F)nc2c1ncn2[C@@H]1O[C@H](COP(=O)(O)O)[C@@H](O)[C@@H]1O [PCM-0090501],-8.6%,
COc1cccc2c1C(=O)c1c(O)c3c(c(O)c1C2=O)C[C@@](O)(C(=O)CO)C[C@@H]3O[C@H]1C[C@H](N)[C@@H](O)[C@H](C)O1 [PCM-0090504],45.1%,
CCC(=O)NCC[C@@H]1CCc2ccc3c(c21)CCO3 [PCM-0090528],-20.2%,
CC1=CC(=O)NS(=O)(=O)O1 [PCM-0090549],-14%,
CNCC(=O)c1ccc(O)c(O)c1 [PCM-0090552],10.9%,
COC(=O)/C=C/C(=O)OC [PCM-0090553],1.4%,
CCC(C)n1ncn(-c2ccc(N3CCN(c4ccc(OC[C@H]5CO[C@](Cn6cncn6)(c6ccc(Cl)cc6Cl)O5)cc4)CC3)cc2)c1=O (some centres unmarked) [PCM-0090573],-13.6%,
CN(C)CCc1c[nH]c2ccc(C[C@H]3COC(=O)N3)cc12 [PCM-0090594],17.1%,
CNCC[C@H](Oc1cccc2ccccc12)c1cccs1 [PCM-0090599],-1.6%,
OC[C@@H](O)[C@@H](O[C@@H]1O[C@H](CO)[C@H](O)[C@H](O)[C@H]1O)[C@H](O)[C@@H](O)CO [PCM-0090607],17.8%,
CN1CC(=O)N=C1N [PCM-0090615],-3.4%,
O=S(=O)(O)NC1CCCCC1 [PCM-0090618],3.9%,
C[N+](C)(C)CC(O)CC(=O)O (centres unmarked) [PCM-0090641],-11.7%,
CC(=O)Nc1ccccc1 [PCM-0090657],-14.5%,
C[C@H](Cn1cnc2c(N)ncnc21)OCP(=O)(O)O [PCM-0090661],-11.7%,
O=c1oc2c(O)c(O)cc3c(=O)oc4c(O)c(O)cc1c4c23 [PCM-0090664],15.3%,
O=S(=O)(O)CCSSCCS(=O)(=O)O [PCM-0090667],-8.6%,
CCOC(=O)CC(=O)N1CCSC1COc1ccccc1OC (centres unmarked) [PCM-0090669],-8.6%,
O=C1CC[C@@H](C(=O)N2CSC[C@H]2C(=O)O)N1 [PCM-0090672] ([pGlu]-[Thz]-OH),11.7%,
O=S(=O)(c1cccc2cnccc12)N1CCCNCC1 [PCM-0090675],-17.9%,
O=C(O)CSCC(=O)NC1CCSC1=O (centres unmarked) [PCM-0090679],-10.9%,
CCCCCCCCCCCCCCCCOP(=O)([O-])OCC[N+](C)(C)C [PCM-0090698],-72.3%,
O=c1oc2cc(O)ccc2s1 [PCM-0090709],-13.2%,

Structure (SMILES),inhibition at 10 µM [1],inhibition at 10 µM (read-out: BTK inhibition (%))
O=C(O)CCCCC1CCSS1 (centres unmarked) [PCM-0090722],-16.3%,
O=C(O)c1cc(=O)[nH]c(=O)[nH]1 [PCM-0090751],-11.7%,
CCOC(=O)OC(C)OC1=C(C(=O)Nc2ccccn2)N(C)S(=O)(=O)c2ccccc21 (centres unmarked) [PCM-0090753],2.1%,
OC[C@@H](O)[C@@H](O)[C@H](O)[C@@H](O)CO [PCM-0090796],-19.5%,
O=c1cc[nH]c(=S)[nH]1 [PCM-0090803],8.6%,
C=CCNC(N)=S [PCM-0090807],-18.7%,
CC1(C)CCC[C@]2(C)[C@H]3CC(=O)O[C@]3(C)CC[C@@H]12 [PCM-0090818],-18.7%,
OC[C@@H](O)C(O)[C@@H](O)CO (some centres unmarked) [PCM-0090917],2.3%,
Cc1cc(O)c2c(c1)C(=O)c1cccc(O)c1C2=O [PCM-0090919],-4.8%,
COc1cc(/C=C/C(=O)CC(=O)/C=C/c2ccc(O)c(OC)c2)ccc1O [PCM-0091011],102%,
O=c1[nH]cnc2nc[nH]c12 [PCM-0091022],-22.1%,
C/C=C1\[C@H]2C=C(C)C[C@]1(N)c1ccc(=O)[nH]c1C2 [PCM-0091027],-24.7%,
O=c1c2ccccc2oc2ccccc12 [PCM-0091091],-21%,
C[C@H]1COC2=C1C(=O)C(=O)c1c2ccc2c1CCCC2(C)C [PCM-0091097],15.6%,
COc1ccc(-c2cc(=O)c3c(OC)c(OC)c(OC)c(OC)c3o2)cc1OC [PCM-0091108],2.3%,
OCc1c[nH]c2ccccc12 [PCM-0091140],-14%,
O=c1ccn([C@@H]2O[C@H](CO)[C@@H](O)[C@H]2O)c(=O)[nH]1 [PCM-0091168],7.8%,
C=CC(C)(O)CCC=C(C)C (centres unmarked) [PCM-0091203],-9.3%,
COc1ccc([C@@H]2CC(=O)c3c(O)cc(O)cc3O2)cc1O [PCM-0091279],-11.7%,
NCCc1ccccc1 [PCM-0091318],0%,
Cc1coc2c1C(=O)C(=O)c1c-2ccc2c1CCCC2(C)C [PCM-0091329],16.3%,
CN(C)Cc1c[nH]c2ccccc12 [PCM-0091332],-24.9%,
COc1cc(OC)c(OC)cc1C=O [PCM-0091340],,-12.4%
COc1ccc(C(C)=O)c(O)c1 [PCM-0091399],6.2%,
CCc1c2c(nc3ccc(O)cc13)-c1cc3c(c(=O)n1C2)COC(=O)[C@]3(O)CC [PCM-0091516],-28.8%,
OC[C@H]1O[C@@H](OCCc2ccc(O)cc2)[C@H](O)[C@@H](O)[C@@H]1O [PCM-0094523],-13.2%,
OCc1ccc(O[C@@H]2O[C@H](CO)[C@@H](O)[C@H](O)[C@H]2O)cc1 [PCM-0094551],17.9%,

Structure (SMILES),inhibition at 10 µM [1],inhibition at 10 µM (read-out: BTK inhibition (%))
COc1ccc2ccc(=O)oc2c1CC=C(C)C [PCM-0094564],-70%,
C=C[C@@](C)(/C=C/c1ccc(O)cc1)CCC=C(C)C [PCM-0094651],6.9%,
C=C[C@](C)(O)CC[C@@H]1[C@@]2(C)CCCC(C)(C)[C@@H]2CC[C@@]1(C)O [PCM-0094807],-25.7%,
CC(=O)C1=C(O)C=C2Oc3c(C(C)=O)c(O)c(C)c(O)c3[C@@]2(C)C1=O [PCM-0094808],17.1%,
O=C(O)C1=C[C@@H](O)[C@@H](O)[C@H](O)C1 [PCM-0094809],10.1%,
O=C(O)CCCc1c[nH]c2ccccc12 [PCM-0094810],-12.5%,
COc1cc(C2Oc3cc(C4Oc5cc(O)cc(O)c5C(=O)C4O)ccc3OC2CO)ccc1O (centres unmarked) [PCM-0094811],66.1%,
C=C1CC[C@@H]2[C@](C)(CO)[C@H](O)CC[C@@]2(C)[C@@H]1C/C=C1/C(=O)OC[C@H]1O [PCM-0094814],-6.2%,
Cc1coc2c1C(=O)C(=O)c1c-2ccc2c(C)cccc12 [PCM-0094815],-3.9%,
O=C1C[C@@H](c2ccc(O)cc2)Oc2cc(O)cc(O)c21 [PCM-0094816],3.9%,
O=[N+]([O-])c1ncc[nH]1 [PCM-0094820],,3.1%
O=C(O)[C@H]1O[C@@H](Oc2cc3oc(-c4ccccc4)cc(=O)c3c(O)c2O)[C@H](O)[C@@H](O)[C@@H]1O [PCM-0094823],14.8%,
COc1cc(CCC(C)=O)ccc1O [PCM-0094824],-0.8%,
NC(Cc1c[nH]c2ccc(O)cc12)C(=O)O (centres unmarked) [PCM-0094825],-2.3%,
O=C1c2c(O)cccc2[C@H]([C@@H]2O[C@H](CO)[C@@H](O)[C@H](O)[C@H]2O)c2cc(CO)cc(O)c21 [PCM-0094826],21%,
CC(C)(C)[C@]1(O)C[C@@H]2OC(=O)C[C@@]23C(=O)O[C@@H]2OC(=O)[C@H](O)[C@]213 [PCM-0094827],,-6.2%
C=C[C@H]1CN2CC[C@H]1C[C@H]2[C@H](O)c1ccnc2ccccc12 [PCM-0094829],-10.9%,
COc1cc(C(C)=O)ccc1O [PCM-0094831],9%,
CN(C)CCc1ccc(O)cc1 [PCM-0094832],-21.8%,
O=C1C(c2c(O)[nH]c3ccccc23)=Nc2ccccc21 [PCM-0094833],11%,
CCN1C[C@]2(OC(=O)c3ccccc3NC(C)=O)CC[C@H](OC)[C@@]34[C@@H]2C[C@@H]([C@@H]13)[C@@]1(O)C[C@H](OC)[C@H]2C[C@@H]4[C@]1(O)[C@H]2OC [PCM-0094835],,21%
O=c1cccc2n1C[C@@H]1CNC[C@H]2C1 [PCM-0094836],-10.1%,
CC(C)Oc1ccc2c(=O)c(-c3ccccc3)coc2c1 [PCM-0094837],17.9%,
C[C@@H]1O[C@@H](O[C@H]2[C@H](Oc3cc(O)c(C(=O)CCc4ccc(O)cc4)c(O)c3)O[C@H](CO)[C@@H](O)[C@@H]2O)[C@H](O)[C@H](O)[C@H]1O [PCM-0094838],14.8%,
O=c1c(O)c(-c2ccc(O)c(O)c2)oc2cc(O)ccc12 [PCM-0094846],46.7%,
O=C1c2c(O)cc(O)cc2O[C@H](c2cc(O)c(O)c(O)c2)[C@H]1O [PCM-0094847],-9%,
